In US7906515B2, “Cancer treatment with topoisomerase-II inhibitor, a bis-dioxypiperazine and radiation” (Topotarget A/S, priority 2004, dated 2011):
Entries after “also recorded” stand apart in the source; their conditions may differ. Read-outs that look alike come from different tables or passages of the source.

Assays:
[1] = Histological evaluation of the blood brain barrier and blood tumour barrier by dye staining; format: in vivo; details: day 3 after tumour implantation; 5 mice per dye
Description: Following anaesthesia by hypnorm/dormicum 25 uL of Evans Blue Dye or 80 uL of Lissamine Green was administered by a tail-vein. After allowing the dye to circulate, animals were perfused transcardially with a 4% formalin solution for 5 minutes. The brain was kept in formalin 4%, and […] thick slices were cut on a vibratome and evaluated visually for staining. A check for positive stain of organs was performed before inclusion of the animal in the evaluation of staining of the brain and tumour. Evans Blue Dye and Lissamine Green were obtained from Sigma-Aldrich (Vallensbaek, DK) and prepared fresh as a 2% solution in isotonic saline.
(§1) Experiments with Evans blue dye, Lissamine Green and 3H-etoposide were done on day 3, with preparations as described for treatment efficacy experiments.

[2] = system: brain metastasis from SCLC; details: cited from earlier work
topoisomerase II = details: cited from earlier work
[3] = system: Ehrlich Ascites tumour cells; test: Treatment efficacy: survival of mice with intracerebrally implanted Ehrlich Ascites tumour; format: in vivo, B6D2F1 female mice
Description: B6D2F1 female mice from Taconic M&B (Ry, Denmark) were housed in cages of 9 with free access to water and Altromi laboratory diet from Brogaarden (Gentofte, DK). They weighed 19-22 grams at inclusion in protocol. Animals that deteriorated clinically during the experiment were euthanised, and the experiments were approved by the Danish Animal Experimentation Inspectorate.
A total of 15×10^4 Ehrlich Ascites tumour cells in 30 uL saline were implanted into the right temporal hemisphere during short CO2 anaesthesia on day 0 and treated on day 3. Treatment was scheduled as follows: dexrazoxane at t=0, etoposide at t=20 minutes and radiation treatment at t=50 minutes. Before the radiotherapy procedure a light anaesthesia was administered, to achieve compliance.
This way we obtained a simple and reliable method of comparison.
Efficacy of chemoradiotherapy compared to radiotherapy alone was calculated as: […]
Median survival after chemotherapy compared to radiotherapy alone was calculated as:
The absolute numeric difference in median survival time after chemotherapy alone compared to radiotherapy alone was simply calculated as: Difference in survival (days)=MS radiotherapy−MS chemotherapy Eq. 3)
Survival times within the separate experimental treatment groups were compiled, and presented in Kaplan-Meier plots. P-values from Logrank tests comparing survival in experimental groups compared to radiotherapy alone are shown.
The dose-rate was 4.7 Gy/minute.
Dexrazoxane (Zinecard®) was obtained from Pharmacia (Kalamazoo, Mich.) and further diluted in Ringer-lactate. Etoposide (Vepesid™) was obtained as a ready to administer liquid solution from Pharmacia A/S (Copenhagen, DK) and diluted to final concentration in isotonic saline. 3H-etoposide was obtained from Moravek (Calif., USA) and kept at −20° C. All drugs were administered by the intra-peritoneal (ip.) route.

topoisomerase-II = details: in vitro, cited from earlier work
[4] = system: Ehrlich Ascites tumour cells; test: Clonogenic survival in soft agar after drug with or without concurrent radiotherapy; details: for Cell-kill interaction of etoposide with radiotherapy: increasing concentrations of etoposide, 150 minutes exposure
[5] = Brain and tumour uptake using tritiated etoposide; format: in vivo, mice; details: ten minutes after ip administration
Description: Tritium-labelled etoposide was mixed with either “cold” etoposide 9.0 mg/ml, “cold” etoposide 0.9 mg/ml or isotonic saline, all in a final volume of 200 uL. Ten minutes after the administration mice were anaesthetized by CO2, blood was collected and plasma was separated. […] Tumour and unaffected contra-lateral brain were removed under a surgical microscope, weighed and sonicated. Activity was measured in a liquid scintillation counter from Packard (US), and counts/gram in brain and tumour was compared to concurrent plasma values.
as §1

[6] = Etoposide area under the curve after intra-peritoneal treatment; format: in vivo; details: own experiments, data unpublished
Description: Following intra-peritoneal treatment with etoposide, approximately 95% of the total etoposide area under the curve is covered within 150 minutes after administration (own experiments, data unpublished). […] Ehrlich Ascites tumour cells were incubated in etoposide or dexrazoxane for 30 minutes before irradiation, and then allowed further 120 minutes post-irradiation drug incubation, resulting in a total duration of exposure of 150 minutes.

[7] = concurrent teniposide and WBRT, phase III trial

SMILES: Cc1cc(-c2ccc(/N=N/c3ccc4c(S(=O)(=O)[O-])cc(S(=O)(=O)[O-])c(N)c4c3O)c(C)c2)ccc1/N=N/c1ccc2c(S(=O)(=O)[O-])cc(S(=O)(=O)[O-])c(N)c2c1O.[Na+].[Na+].[Na+].[Na+] [Evans blue dye]
- Colouration of brain or tumour tissue after tail-vein administration [1]: no colouration of brain or tumour tissue

SMILES: COc1cc([C@@H]2c3cc4c(cc3[C@@H](O[C@@H]3O[C@@H]5CO[C@@H](c6cccs6)O[C@H]5[C@H](O)[C@H]3O)[C@H]3COC(=O)[C@H]23)OCO4)cc(OC)c1O [teniposide]
- Time to cerebral progression ([2]; concurrent teniposide and WBRT versus teniposide alone): significantly increased
- Median survival [2, 7]: 3.5 months
- Response rate [2, 7]: 57%
- Response rate ([2]; teniposide 150 mg/m^2 day 1, 3 and 5, alone, phase II): 33%
- Median survival ([2]; teniposide alone, phase III trial): 3.2 months
- Potency relative to VP-16 (topoisomerase II): about 10 fold

SMILES: C[C@@H](CN1CC(=O)NC(=O)C1)N1CC(=O)NC(=O)C1 [dexrazoxane, (S)-(+)-1,2-Bis(3,5-dioxopiperazin-1-yl)propane]
- Survival after drug alone ([3]; dexrazoxane 125 mg/kg alone): increased survival a little
- Effect on survival in combination with radiotherapy ([3]; dexrazoxane 125 mg/kg and concurrent 10 Gy): neither dexrazoxane 125 mg/kg (FIG. 1D) nor solvent affected survival in combination with radiotherapy
- Difference in survival, days lost from ineffective treatment (Eq. 3) ([3]; dexrazoxane 125 mg/kg ip alone, compared to radiotherapy): 5 days
- Effect on toxicity from etoposide in clonogenic assay (topoisomerase-II): antagonises toxicity from etoposide
- Formation of DNA strand breaks induced by topoisomerase-II poisons (topoisomerase-II): inhibits the formation of DNA strand breaks
- Toxicity of drug alone in clonogenic survival ([4]; dexrazoxane alone): non-toxic
- Radio-enhancing effect in clonogenic survival ([4]; fixed doses of dexrazoxane 25 μM or 125 μM, increasing radiotherapy doses): no radio-enhancing effect; also recorded: no effect at all

SMILES: CN(C)c1ccc(C(=C2C=CC(=[N+](C)C)C=C2)c2c(O)c(S(=O)(=O)[O-])cc3cc(S(=O)(=O)[O-])ccc23)cc1.[Na+] [Lissamine Green]
- Colouration of brain or tumour tissue after tail-vein administration [1]: no colouration of brain or tumour tissue

SMILES: COc1cc([C@@H]2c3cc4c(cc3[C@@H](O[C@@H]3O[C@@H]5CO[C@@H](C)O[C@H]5[C@H](O)[C@H]3O)[C@H]3COC(=O)[C@H]23)OCO4)cc(OC)c1O [etoposide, 9-[[4,6-O-(1R)-ethylidene-β-D-glucopyranosyl]oxy]-5,8,8a,9-tetrahydro-5-(4-hydroxy-3,5-dimethoxyphenyl)-(5R,5aR,8aR,9S)-furo[3′,4′:6,7]naphtho[2,3-d]-1,3-dioxol-6(5aH)-one]
- Survival after drug alone ([3]; etoposide 34 mg/kg alone): increased survival
- Effect on survival from radiotherapy ([3]; etoposide 34 mg/kg and concurrent 10 Gy): did not enhance survival from radiotherapy
- Influence of dose, vehicle or dexrazoxane pre-treatment on uptake in tumour [5]: no influence on uptake in tumour
- Tumour drug uptake compared to brain [5]: higher than in brain, but statistically insignificant, except after treatment with the low dose of etoposide
- Brain/plasma ratio of 3H-etoposide ([5]; etoposide dose-escalation or dexrazoxane 125 mg/kg pre-treatment): Neither etoposide dose-escalation nor pre-treatment with dexrazoxane altered the brain/plasma ratio
- Share of total etoposide area under the curve covered within 150 minutes after administration [6]: approximately 95%
- Cell-kill of etoposide in combination with radiotherapy (topoisomerase-II; literature): synergistic cell-kill
- Interaction by combination index (Chou and Talalay) ([4]; increasing concentrations of etoposide with radiotherapy): synergism
- Cell-kill interaction of etoposide with radiotherapy ([4]; 1.25 Gy): did not result in an increased cell-kill
- Cell-kill interaction of etoposide with radiotherapy ([4]; 7.5 Gy): synergistic cell-kill; also recorded: supra-additive cell-kill
- Interaction by combination index (Chou and Talalay) ([4]; lowest concentrations of etoposide with radiotherapy): antagonistic
